Article PMC7782793, “Hydroxamic acid-modified peptide microarrays for profiling isozyme-selective interactions and inhibition of histone deacetylases” (Nature Communications, 2021)
Several values for one entry are separate records, joined by “and”; a condition that tells them apart may be missing. Equal values may be shown once. Marks after values point to notes of the source that are not given here. Non-standard residues stand in square brackets, D forms with d. Residues, ends and D or L forms follow the SMILES beside them. *: point of attachment. Asu = N[C@@H](CCCCCC(=O)O)C(=O)O; NHOH = ON*

Legend:
HDAC8 [1] = target: T1, HDAC8 (Homo sapiens, UniProt Q9BY41); test: HDAC inhibition assay (fluorogenic, Ac-Leu-Gly-Lys(Tfa)-AMC); type: biochemical; conditions: for HDAC8 dose-response data (relative enzyme activity, replicate values), Fig. 6 + S. Fig. 10: two replicate columns per inhibitor; for HDAC8 dose-response data (relative enzyme activity), Fig. 6 + S. Fig. 10: duplicate columns
T1 construct: HDAC8 (full length, C-terminal His tag, BPS Bioscience, cat. #: 50008); purchased BPS Bioscience 50008
T1 sequence (Q9BY41 1-377): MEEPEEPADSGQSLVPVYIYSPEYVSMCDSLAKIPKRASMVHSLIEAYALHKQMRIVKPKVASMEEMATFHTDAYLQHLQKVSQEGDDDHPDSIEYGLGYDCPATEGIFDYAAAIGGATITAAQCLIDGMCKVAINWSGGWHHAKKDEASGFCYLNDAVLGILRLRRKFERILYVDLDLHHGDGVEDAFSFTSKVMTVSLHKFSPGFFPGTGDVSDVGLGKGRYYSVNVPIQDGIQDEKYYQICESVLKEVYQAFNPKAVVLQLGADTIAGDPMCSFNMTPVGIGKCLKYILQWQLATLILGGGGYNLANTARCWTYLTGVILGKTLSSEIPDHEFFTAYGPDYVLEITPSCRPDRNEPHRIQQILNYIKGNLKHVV

HDAC2 [2] = target: T2, HDAC2 (Homo sapiens, UniProt Q92769); test: HDAC inhibition assay (fluorogenic, Ac-Leu-Gly-Lys(Ac)-AMC); type: biochemical; conditions: for HDAC2 dose-response data (relative enzyme activity), Fig. 6 + S. Fig. 10: duplicate columns
T2 construct: HDAC2 (full length, C-terminal His tag, BPS Bioscience, cat. #: 50002); purchased BPS Bioscience 50002
T2 sequence (Q92769 whole entry): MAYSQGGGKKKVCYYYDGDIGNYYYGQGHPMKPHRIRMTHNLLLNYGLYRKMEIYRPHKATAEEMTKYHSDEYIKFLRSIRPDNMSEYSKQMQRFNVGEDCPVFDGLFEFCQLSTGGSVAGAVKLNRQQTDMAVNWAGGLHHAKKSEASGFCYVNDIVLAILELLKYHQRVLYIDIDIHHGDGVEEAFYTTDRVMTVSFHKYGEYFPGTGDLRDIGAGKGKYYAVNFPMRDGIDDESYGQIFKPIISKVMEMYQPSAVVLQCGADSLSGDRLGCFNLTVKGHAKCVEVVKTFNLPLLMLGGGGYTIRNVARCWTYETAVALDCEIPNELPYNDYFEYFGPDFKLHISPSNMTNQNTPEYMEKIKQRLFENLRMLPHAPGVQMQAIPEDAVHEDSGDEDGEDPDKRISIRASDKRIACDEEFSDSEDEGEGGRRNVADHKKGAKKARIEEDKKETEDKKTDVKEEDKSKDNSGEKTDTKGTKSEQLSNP

HDAC3/NCoR2 [3] = target: T3, HDAC3/NCoR2 (Homo sapiens, UniProt O15379); test: as above; type: biochemical; conditions: for HDAC3 dose-response data (relative enzyme activity), Fig. 6 + S. Fig. 10: duplicate columns
T3 construct: HDAC3/NCoR2 (full length, C-terminal His tag, NCoR2 N-terminal GST tag); purchased BPS Bioscience 50003
T3 sequence (O15379 whole entry): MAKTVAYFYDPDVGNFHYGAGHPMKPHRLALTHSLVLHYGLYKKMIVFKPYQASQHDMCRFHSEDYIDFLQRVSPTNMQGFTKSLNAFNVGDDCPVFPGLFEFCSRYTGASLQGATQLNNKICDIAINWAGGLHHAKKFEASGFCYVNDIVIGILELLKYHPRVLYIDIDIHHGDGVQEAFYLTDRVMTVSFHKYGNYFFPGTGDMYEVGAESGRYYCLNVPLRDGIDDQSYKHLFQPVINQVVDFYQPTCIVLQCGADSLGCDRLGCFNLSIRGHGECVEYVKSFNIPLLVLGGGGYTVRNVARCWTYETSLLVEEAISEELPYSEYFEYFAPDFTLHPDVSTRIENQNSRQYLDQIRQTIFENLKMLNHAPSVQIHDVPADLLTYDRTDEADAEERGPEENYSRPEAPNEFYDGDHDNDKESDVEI
T3 sequence (Q9Y618 389-480 partner limits assumed): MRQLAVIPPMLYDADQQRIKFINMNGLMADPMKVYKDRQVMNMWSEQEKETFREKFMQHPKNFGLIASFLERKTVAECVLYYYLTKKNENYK

HDAC1 [4] = target: T4, HDAC1 (Homo sapiens, UniProt Q13547); test: as above; type: biochemical; conditions: for HDAC1 dose-response data (relative enzyme activity), Fig. 6 + S. Fig. 10: duplicate columns
T4 construct: HDAC1 (full length, C-terminal His tag, C-terminal FLAG tag, BPS Bioscience, cat. #: 50051); FLAG (C); purchased BPS Bioscience 50051
T4 sequence (Q13547 whole entry): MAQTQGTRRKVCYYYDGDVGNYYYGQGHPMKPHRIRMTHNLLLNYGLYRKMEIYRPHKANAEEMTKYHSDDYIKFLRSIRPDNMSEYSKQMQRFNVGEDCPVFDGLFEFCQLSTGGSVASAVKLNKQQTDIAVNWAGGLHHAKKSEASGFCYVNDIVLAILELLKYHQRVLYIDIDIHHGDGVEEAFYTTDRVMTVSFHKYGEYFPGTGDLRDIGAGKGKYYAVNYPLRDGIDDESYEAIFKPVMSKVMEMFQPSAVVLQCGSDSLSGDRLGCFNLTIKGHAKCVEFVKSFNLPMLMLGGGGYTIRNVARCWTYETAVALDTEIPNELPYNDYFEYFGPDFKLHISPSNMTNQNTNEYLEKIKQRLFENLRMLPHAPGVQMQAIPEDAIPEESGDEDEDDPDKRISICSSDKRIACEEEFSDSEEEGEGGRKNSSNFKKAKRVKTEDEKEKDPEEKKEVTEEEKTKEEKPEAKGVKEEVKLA

HDAC2 [5] = target: T2, HDAC2; test: Recombinant HDAC µSPOT microarray binding assay
HDAC8 [6] = target: T1, HDAC8; test: Recombinant HDAC µSPOT microarray binding assay
HDAC1 [7] = target: T4, HDAC1; test: Recombinant HDAC µSPOT microarray binding assay
HDAC3/NCoR2 [8] = target: T3, HDAC3/NCoR2; test: Recombinant HDAC µSPOT microarray binding assay
[9] = log[inhibitor(M)] -10,5850266520292*, whole line marked with asterisks

Compound: CC(=O)N[C@@H](C)C(=O)N1CCC[C@H]1C(=O)N[C@@H](C)C(=O)N1CCC[C@H]1C(=O)N[C@@H](CCCCN)C(=O)N[C@@H](CCCCCC(=O)NO)C(=O)NCC(=O)N[C@@H](CO)C(=O)N[C@@H](CCCCN)C(=O)N[C@@H](CCCCN)C(=O)N[C@@H](C)C(=O)N[C@H](C(=O)N[C@H](C(=O)N[C@@H](CCCCN)C(=O)N[C@@H](C)C(=O)N[C@@H](CCC(N)=O)C(=O)N[C@@H](Cc1c[nH]c2ccccc12)C(N)=O)[C@@H](C)O)C(C)C [10a] (Ac-APAPK[Asu](NHOH)GSKKAVTKAQW-NH2)
- Ki (HDAC8 [1]): 2240 ± 20 nM
- HDAC8 dose-response data (relative enzyme activity, replicate values), Fig. 6 + S. Fig. 10 (HDAC8 [1]; Inhibitor conc [M] -8.49485 (log)): 108.857 and 102.18
- HDAC8 dose-response data (relative enzyme activity, replicate values), Fig. 6 + S. Fig. 10 (HDAC8 [1]; Inhibitor conc [M] -9.19382 (log)): 106.186 and 101.221
- HDAC8 dose-response data (relative enzyme activity, replicate values), Fig. 6 + S. Fig. 10 (HDAC8 [1]; Inhibitor conc [M] given as -7.09691 (log)): 102.611 and 104.497
- HDAC8 dose-response data (relative enzyme activity, replicate values), Fig. 6 + S. Fig. 10 (HDAC8 [1]; Inhibitor conc [M] given as -7.79588 (log)): 103.781 and 99.0423
- HDAC8 dose-response data (relative enzyme activity, replicate values), Fig. 6 + S. Fig. 10 (HDAC8 [1]; Inhibitor conc [M] given as -9.89279 (log)): 110.267 and 101.97
- HDAC8 dose-response data (relative enzyme activity), Fig. 6 + S. Fig. 10 (HDAC8 [1]; Inhibitor conc [M] -3.60206): 2.527 and 3.969
- HDAC8 dose-response data (relative enzyme activity), Fig. 6 + S. Fig. 10 (HDAC8 [1]; Inhibitor conc [M] -4.30103): 9.773 and 11.8218
- HDAC8 dose-response data (relative enzyme activity), Fig. 6 + S. Fig. 10 (HDAC8 [1]; Inhibitor conc [M] -5): 29.4256 and 37.404
- HDAC8 dose-response data (relative enzyme activity), Fig. 6 + S. Fig. 10 (HDAC8 [1]; Inhibitor conc [M] -5.69897): 62.2051 and 60.7878
- HDAC8 dose-response data (relative enzyme activity), Fig. 6 + S. Fig. 10 (HDAC8 [1]; Inhibitor conc [M] -6.39794): 91.1582 and 94.1836
- HDAC2 dose-response data (relative enzyme activity), Fig. 6 + S. Fig. 10 (HDAC2 [2]; log[inhibitor(M)] -5): 21.842 and 17.4503
- HDAC2 dose-response data (relative enzyme activity), Fig. 6 + S. Fig. 10 (HDAC2 [2]; log[inhibitor(M)] -5.69897): 44.183 and 59.677
- HDAC2 dose-response data (relative enzyme activity), Fig. 6 + S. Fig. 10 (HDAC2 [2]; log[inhibitor(M)] -7.79588): 120.227 and 109.311
- HDAC2 dose-response data (relative enzyme activity), Fig. 6 + S. Fig. 10 (HDAC2 [2]; [9]): 109,81* and 112,306*
- Ki (HDAC2 [2]; resynthesized peptide in solution, Cheng-Prusoff, n = 2): 239 ± 4 nM
- Ki (HDAC3/NCoR2 [3]): 51.2 ± 0.9 nM
- HDAC3 dose-response data (relative enzyme activity), Fig. 6 + S. Fig. 10 (HDAC3/NCoR2 [3]; log[inhibitor(M)] -4.30103): 2.766 and 1.97
- HDAC3 dose-response data (relative enzyme activity), Fig. 6 + S. Fig. 10 (HDAC3/NCoR2 [3]; log[inhibitor(M)] -5): 10.2945 and 7.913
- HDAC3 dose-response data (relative enzyme activity), Fig. 6 + S. Fig. 10 (HDAC3/NCoR2 [3]; log[inhibitor(M)] -5.69897): 26.7937 and 20.8193
- HDAC3 dose-response data (relative enzyme activity), Fig. 6 + S. Fig. 10 (HDAC3/NCoR2 [3]; log[inhibitor(M)] -6.39794): 46.8605 and 38.5396
- HDAC3 dose-response data (relative enzyme activity), Fig. 6 + S. Fig. 10 (HDAC3/NCoR2 [3]; log[inhibitor(M)] -7.09691): 73.2021 and 63.7098
- HDAC3 dose-response data (relative enzyme activity), Fig. 6 + S. Fig. 10 (HDAC3/NCoR2 [3]; log[inhibitor(M)] -7.79588): 98.3444 and 77.95
- HDAC3 dose-response data (relative enzyme activity), Fig. 6 + S. Fig. 10 (HDAC3/NCoR2 [3]; log[inhibitor(M)] -8.49485): 104.594 and 95.6609
- HDAC3 dose-response data (relative enzyme activity), Fig. 6 + S. Fig. 10 (HDAC3/NCoR2 [3]; log[inhibitor(M)] -9.19382): 108.819 and 98.0987
- HDAC3 dose-response data (relative enzyme activity), Fig. 6 + S. Fig. 10 (HDAC3/NCoR2 [3]; log[inhibitor(M)] -9.89279): 107.136 and 105.407
- HDAC3 dose-response data (relative enzyme activity), Fig. 6 + S. Fig. 10 (HDAC3/NCoR2 [3]; [9]): 106,9896* and 85,1199*
- Ki (HDAC1 [4]): 111 ± 2 nM
- HDAC1 dose-response data (relative enzyme activity), Fig. 6 + S. Fig. 10 (HDAC1 [4]; log[inhibitor(M)] -4.30103): 5.334 and 4.212
- HDAC1 dose-response data (relative enzyme activity), Fig. 6 + S. Fig. 10 (HDAC1 [4]; log[inhibitor(M)] -5.69897): 29.499 and 30.3493
- HDAC1 dose-response data (relative enzyme activity), Fig. 6 + S. Fig. 10 (HDAC1 [4]; log[inhibitor(M)] -6.39794): 63.3422 and 57.5642
- HDAC1 dose-response data (relative enzyme activity), Fig. 6 + S. Fig. 10 (HDAC1 [4]; log[inhibitor(M)] -7.09691): 92.4396 and 86.4688
- HDAC1 dose-response data (relative enzyme activity), Fig. 6 + S. Fig. 10 (HDAC1 [4]; log[inhibitor(M)] -7.79588): 116.265 and 84.5085
- HDAC1 dose-response data (relative enzyme activity), Fig. 6 + S. Fig. 10 (HDAC1 [4]; log[inhibitor(M)] -8.49485): 113.205 and 105.123
- HDAC1 dose-response data (relative enzyme activity), Fig. 6 + S. Fig. 10 (HDAC1 [4]; log[inhibitor(M)] -9.19382): 116.621 and 108.226
- HDAC1 dose-response data (relative enzyme activity), Fig. 6 + S. Fig. 10 (HDAC1 [4]; log[inhibitor(M)] -9.89279): 112.611 and 105.771
- HDAC1 dose-response data (relative enzyme activity), Fig. 6 + S. Fig. 10 (HDAC1 [4]; [9]): 102,7345* and 100,1809*
- EC50 (HDAC2 [5]): > 25.1 nM
- EC50 (HDAC8 [6]): > 25.1 nM
- EC50 (HDAC1 [7]): 8.71 nM
- EC50 (HDAC3/NCoR2 [8]): 3.09 nM
